Results published in patent publication US9862676B2, “Hydroxamic acid derivative or salt thereof” (TOYAMA CHEMICAL CO., LTD., priority 2013, dated 2018).
Converted amounts (≈) assume the structure as drawn.

Tests used:
[1] = Test on inhibition of Vero cell growth (XTT); format: cell-based; conditions: African green monkey, Vero cells, 3 days culture, read-out: CC50 (concentration inhibiting 50% of cell growth)
Procedure: Each test compound was dissolved in dimethyl sulfoxide, adjusted to each concentration using E'MEM, and then dispensed at 0.1 mL/well to 96-well microplates. The Vero cell suspension was prepared at 3×10^4 cells/mL using E'MEM supplemented with 20% FBS, inoculated thereto at 0.1 mL/well, and cultured at 37° C. for 3 days under 5% CO2. At the completion of the culture, PBS supplemented with 1 mg/mL 2,3-bis-(2-methoxy-4-nitro-5-sulfophenyl)-5-((phenylamino)carbonyl)-2H-tetrazolium inner salt monosodium salt (XTT) and 25 μM phenazine methosulfate (PMS) was prepared and added thereto at 50 μL/well. Approximately 2 hours later, the absorbance at 450 nm was measured using a microplate reader.

[2] = test system: Pseudomonas aeruginosa ATCC27853 strain; assay: Antibacterial activity, MIC by broth microdilution (CLSI); format: cell-based
Procedure: (§1) The minimum inhibitory concentration (MIC) was measured according to the CLSI (Clinical and Laboratory Standards Institute) standard method using a broth microdilution method given below. The bacteria used were a Pseudomonas aeruginosa ATCC27853 strain, an Escherichia coli ATCC25922 strain and a Klebsiella pneumoniae ATCC13883 strain. Test bacterial cells of each strain cultured overnight in a Mueller-Hinton agar medium were scraped off and suspended at the McFarland 0.5 standard, and this suspension was diluted 10-fold to prepare an inoculum solution. The inoculum solution (0.005 mL) was inoculated to a cation-adjusted Mueller-Hinton medium containing each test compound and cultured at 35° C. for 16 to 20 hours. The minimum drug concentration at which bacterial growth was not visible to the naked eye was defined as MIC.

[3] = test system: Klebsiella pneumoniae ATCC13883 strain; assay: as above; format: cell-based
Procedure: as §1

[4] = test system: Escherichia coli ATCC25922 strain; assay: as above; format: cell-based
Procedure: as §1

[5] = target: T1, Pseudomonas aeruginosa LpxC enzyme (Pseudomonas aeruginosa, UniProt P47205); assay: Test to evaluate Pseudomonas aeruginosa LpxC enzyme inhibitory activity; format: biochemical
T1 construct: made in house; host or cells: Escherichia coli
T1 sequence (P47205 1-303): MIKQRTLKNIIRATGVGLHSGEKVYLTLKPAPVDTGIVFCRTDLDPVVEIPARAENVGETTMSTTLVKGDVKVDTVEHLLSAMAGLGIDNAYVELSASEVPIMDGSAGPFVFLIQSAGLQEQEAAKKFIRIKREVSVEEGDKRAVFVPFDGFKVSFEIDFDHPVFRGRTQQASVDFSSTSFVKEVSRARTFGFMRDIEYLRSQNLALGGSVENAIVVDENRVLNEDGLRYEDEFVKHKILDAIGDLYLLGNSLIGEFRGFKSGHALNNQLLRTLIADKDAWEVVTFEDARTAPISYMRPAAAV
Procedure: The Pseudomonas aeruginosa LpxC enzyme activity was measured by reacting LpxC with its substrate UDP-3-O—(R-3-hydroxydecanoyl)-N-acetylglucosamine and measuring the amount of the reaction product by the quantification of an amino group present in the product. This measurement was carried out according to a method described in, for example, International Publication No. WO 11/132712 pamphlet or a method similar thereto.
Specifically, to the Pseudomonas aeruginosa LpxC enzyme (which was obtained by preparing chromosomal DNA from Pseudomonas aeruginosa, obtaining the Pseudomonas aeruginosa LpxC gene by PCR (polymerase chain reaction) using LpxC-specific primers, and incorporating this gene into a vector, followed by gene expression using Escherichia coli), 20 μmol/L UDP-3-O—(R-3-hydroxydecanoyl)-N-acetylglucosamine (Wako Pure Chemical Industries, Ltd.) was added, and the mixture was incubated at 25° C. for 1 hour. This reaction was carried out in a 40 mmol/L HEPES buffer solution (pH 8.0) containing 0.02% Brij 35 and 80 μmol/L dithiothreitol. The reaction was terminated by the addition of 20% acetic acid (final concentration: 0.95%) to the reaction solution. Then, fluorescamine (final concentration: 1.6 mg/mL) dissolved in anhydrous dioxane was added thereto. The amount of the reaction product was detected at an excitation wavelength/fluorescence wavelength=390 nm/495 nm. Each test compound was allowed to coexist at various concentrations in the reaction to obtain an inhibition curve.

[6] = test system: multidrug-resistant Pseudomonas aeruginosa clinical isolate (S-2838 strain); assay: Defense against mouse systemic infection using multidrug-resistant Pseudomonas aeruginosa; format: in vivo; conditions: male ICR mice, S-2838 strain i.p., single intravenous dose 50 mg/kg 1 hour after infection
Procedure: The mice used were male ICR SPF mice (4 weeks old: 5 individuals per group). To prepare a bacterial inoculum solution, a multidrug-resistant Pseudomonas aeruginosa clinical isolate (S-2838 strain) cultured overnight at 37° C. on a Mueller-Hinton agar plate was cultured for 5 hours in a cation-adjusted Mueller-Hinton medium and then diluted 10-fold with a 10% mucin/phosphate buffer solution to prepare the inoculum solution. Infection was induced by the intraperitoneal inoculation of 0.5 mL of the inoculum solution (approximately 10^6 CFU/mouse) to each mouse. Each test compound was dissolved in a 10% hydroxypropylated β-cyclodextrin/2.5% mannitol aqueous solution and intravenously administered to the tail a single dose of 50 mg/kg at 1 hour after the infection. Three days after the infection, the number of survivors was recorded.

SMILES	MIC [2] [µg/mL]	MIC [3] [µg/mL]	MIC [4] [µg/mL]	IC50 [5] [nM]	CC50 at 3 days [1] [µg/mL]	mice surviving 3 days after the bacterial inoculation [6] [%]
CNC(=O)[C@@](C)(C(=O)NO)N(C)C(=O)c1ccc(C#Cc2ccc(C(O)CCO)cc2)cc1 (stereo partly drawn) [Example 17, (2S)-2-((4-((4-(1,3-dihydroxypropyl)phenyl)ethynyl)benzoyl)(methyl)amino)-N-hydroxy-N′,2-dimethylmalonamide]	1 (≈ 2.21 µM)	–	–	< 50	≥ 100	–
CNC(=O)[C@@](C)(C(=O)NO)N(C)C(=O)c1ccc(C#Cc2ccc(C(O)CO)cc2)cc1 (stereo partly drawn) [Example 3, (2S)-2-((4-((4-(1,2-dihydroxyethyl)phenyl)ethynyl)benzoyl)(methyl)amino)-N-hydroxy-N′,2-dimethyl-malonamide]	1 (≈ 2.28 µM)	–	–	< 50	≥ 100	–
CNC(=O)[C@@](C)(C(=O)NO)N(C)C(=O)c1ccc(C#Cc2ccc(C(C)O)cc2)cc1 (stereo partly drawn) [Example 16, (2S)—N-hydroxy-2-((4-((4-(1-hydroxyethyl)phenyl)ethynyl)benzoyl)(methyl)amino)-N′,2-dimethyl-malonamide]	1 (≈ 2.36 µM)	1 (≈ 2.36 µM)	0.25 (≈ 0.59 µM)	< 50	–	–
CNC(=O)[C@@](C)(C(=O)NO)N(C)C(=O)c1ccc(C#Cc2ccc([C@@H](O)CO)cc2)cc1 [Example 19, (2S)-2-((4-((4-((1R)-1,2-dihydroxyethyl)phenyl)ethynyl)benzoyl)(methyl)amino)-N-hydroxy-N′,2-dimethyl-malonamide]	1 (≈ 2.28 µM)	–	–	< 50	≥ 100	100
CNC(=O)[C@@](C)(C(=O)NO)N(C)C(=O)c1ccc(C#Cc2ccc(C(O)COC)cc2)cc1 (stereo partly drawn) [Example 13, (2S)—N-hydroxy-2-((4-((4-(1-hydroxy-2-methoxyethyl)phenyl)ethynyl)benzoyl)(methyl)amino)-N′,2-dimethyl-malonamide]	1 (≈ 2.21 µM)	1 (≈ 2.21 µM)	0.25 (≈ 0.551 µM)	–	≥ 100	–
CNC(=O)[C@@](C)(C(=O)NO)N(C)C(=O)c1ccc(C#Cc2ccc(COCC(C)(C)O)cc2)cc1 [Example 7, (2S)—N-hydroxy-2-((4-((4-((2-hydroxy-2-methylpropoxy)methyl)phenyl)ethynyl)benzoyl)(methyl)amino)-N′,2-dimethyl-malonamide]	1 (≈ 2.08 µM)	0.5 (≈ 1.04 µM)	0.25 (≈ 0.519 µM)	–	≥ 100	–
CNC(=O)[C@@](C)(C(=O)NO)N(C)C(=O)c1ccc(C#Cc2ccc(COCCO)cc2)cc1 [Example 1, (2S)—N-hydroxy-2-((4-((4-((2-hydroxyethoxy)methyl)phenyl)ethynyl)benzoyl)(methyl)amino)-N′,2-dimethyl-malonamide]	1 (≈ 2.21 µM)	1 (≈ 2.21 µM)	0.25 (≈ 0.551 µM)	< 50	≥ 100	–
CNC(=O)[C@@](C)(C(=O)NO)N(C)C(=O)c1ccc(C#Cc2ccc(CO[C@H](C)CO)cc2)cc1 [Example 10, (2S)—N-hydroxy-2-((4-((4-(((1R)-2-hydroxy-1-methylethoxy)methyl)phenyl)ethynyl)benzoyl)(methyl)amino)-N′,2-dimethyl-malonamide]	1 (≈ 2.14 µM)	0.5 (≈ 1.07 µM)	0.25 (≈ 0.535 µM)	–	≥ 100	–
CNC(=O)[C@@](C)(C(=O)NO)N(C)C(=O)c1ccc(C#Cc2ccc([C@H](O)CCCO)cc2)cc1 [Example 39, (2S)-2-((4-((4-((1R)-1,4-dihydroxybutyl)phenyl)ethynyl)benzoyl)(methyl)amino)-N-hydroxy-N′,2-dimethyl-malonamide]	1 (≈ 2.14 µM)	1 (≈ 2.14 µM)	0.5 (≈ 1.07 µM)	< 50	–	100

More lines, main results first:

MIC [2] [µg/mL]	MIC [3] [µg/mL]	MIC [4] [µg/mL]	IC50 [5] [nM]	SMILES	CC50 at 3 days [1] [µg/mL]	mice surviving 3 days after the bacterial inoculation [6] [%]
0.5 (≈ 1.07 µM)	1 (≈ 2.14 µM)	0.25 (≈ 0.535 µM)	< 50	CNC(=O)[C@@](C)(C(=O)NO)N(C)C(=O)c1ccc(C#Cc2ccc([C@H](O)CCOC)cc2)cc1 [Example 36, (2S)—N-hydroxy-2-((4-((4-((1R)-1-hydroxy-3-methoxypropyl)phenyl)ethynyl)benzoyl)(methyl)amino)-N′,2-dimethylmalonamide]	≥ 100	–
1 (≈ 2.14 µM)	1 (≈ 2.14 µM)	–	< 50	CNC(=O)[C@@](C)(C(=O)NO)N(C)C(=O)c1ccc(C#Cc2ccc(C(O)CCCO)cc2)cc1 (stereo partly drawn) [Example 35, (2S)-2-((4-((4-(1,4-dihydroxybutyl)phenyl)ethynyl)benzoyl)(methyl)amino)-N-hydroxy-N′,2-dimethyl-malonamide]	≥ 100	–
1 (≈ 2.07 µM)	–	0.5 (≈ 1.03 µM)	< 50	CNC(=O)[C@@](C)(C(=O)NO)N(C)C(=O)c1ccc(C#Cc2ccc([C@H](O)COCCO)cc2)cc1 [Example 24, (2S)—N-hydroxy-2-((4-((4-((1S)-1-hydroxy-2-(2-hydroxyethoxy)ethyl)phenyl)ethynyl)benzoyl)(methyl)amino)-N′,2-dimethyl-malonamide]	≥ 100	–
1 (≈ 2.21 µM)	–	0.5 (≈ 1.1 µM)	< 50	CNC(=O)[C@@](C)(C(=O)NO)N(C)C(=O)c1ccc(C#Cc2ccc([C@H](O)[C@H](C)O)cc2)cc1 [Example 33, (2S)-2-((4-((4-((1S,2S)-1,2-dihydroxypropyl)phenyl)ethynyl)benzoyl)(methyl)amino)-N-hydroxy-N′,2-dimethylmalonamide]	≥ 100	–
1 (≈ 2.15 µM)	1 (≈ 2.15 µM)	0.5 (≈ 1.07 µM)	< 50	CNC(=O)[C@@](C)(C(=O)NO)N(C)C(=O)c1ccc(C#Cc2ccc([C@H](O)/C=C/CO)cc2)cc1 [Example 40, (2S)-2-((4-((4-((1R,2E)-1,4-dihydroxybut-2-ene-1-yl)phenyl)ethynyl)benzoyl)(methyl)amino)-N-hydroxy-N′,2-dimethyl-malonamide]	–	–
0.5 (≈ 1.1 µM)	–	0.5 (≈ 1.1 µM)	< 50	CNC(=O)[C@@](C)(C(=O)NO)N(C)C(=O)c1ccc(C#Cc2ccc([C@H](O)CCO)cc2)cc1 [Example 25, (2S)-2-((4-((4-((1R)-1,3-dihydroxypropyl)phenyl)ethynyl)benzoyl)(methyl)amino)-N-hydroxy-N′,2-dimethyl-malonamide]	≥ 100	–
